The record followed here is US11351178B2, “Selective HDAC6 inhibitors” (ITALFARMACO S.P.A., priority 2017, dated 2022).

Series [1] can be described thus: Stability to Phase I metabolism in rat S9 liver fraction. The format is in vitro ADME. As to conditions: after 90 min, 37° C. As for the experimental part: Test compounds were incubated in rat and human liver S9 fraction at 37° C. up to 90 minutes in order to evaluate their stability to Phase I metabolism by hepatic enzymes. […] The reaction was stopped placing samples on ice bath and adding acidified acetonitrile. After centrifugation (10 minutes at 14000 rpm) an aliquot of the supernatant was diluted water, filtered with 0.45 μm regenerated cellulose syringe filters and injected in HPLC-UV or in LC-MS/MS. The percentages of the amount remaining at the various incubation times with respect to the initial amount were calculated. The intrinsic clearance was also calculated.

The target in a further series is T1, recombinant human HDAC6 (Homo sapiens, UniProt Q9UBN7).
T1 sequence (Q9UBN7 1-1215): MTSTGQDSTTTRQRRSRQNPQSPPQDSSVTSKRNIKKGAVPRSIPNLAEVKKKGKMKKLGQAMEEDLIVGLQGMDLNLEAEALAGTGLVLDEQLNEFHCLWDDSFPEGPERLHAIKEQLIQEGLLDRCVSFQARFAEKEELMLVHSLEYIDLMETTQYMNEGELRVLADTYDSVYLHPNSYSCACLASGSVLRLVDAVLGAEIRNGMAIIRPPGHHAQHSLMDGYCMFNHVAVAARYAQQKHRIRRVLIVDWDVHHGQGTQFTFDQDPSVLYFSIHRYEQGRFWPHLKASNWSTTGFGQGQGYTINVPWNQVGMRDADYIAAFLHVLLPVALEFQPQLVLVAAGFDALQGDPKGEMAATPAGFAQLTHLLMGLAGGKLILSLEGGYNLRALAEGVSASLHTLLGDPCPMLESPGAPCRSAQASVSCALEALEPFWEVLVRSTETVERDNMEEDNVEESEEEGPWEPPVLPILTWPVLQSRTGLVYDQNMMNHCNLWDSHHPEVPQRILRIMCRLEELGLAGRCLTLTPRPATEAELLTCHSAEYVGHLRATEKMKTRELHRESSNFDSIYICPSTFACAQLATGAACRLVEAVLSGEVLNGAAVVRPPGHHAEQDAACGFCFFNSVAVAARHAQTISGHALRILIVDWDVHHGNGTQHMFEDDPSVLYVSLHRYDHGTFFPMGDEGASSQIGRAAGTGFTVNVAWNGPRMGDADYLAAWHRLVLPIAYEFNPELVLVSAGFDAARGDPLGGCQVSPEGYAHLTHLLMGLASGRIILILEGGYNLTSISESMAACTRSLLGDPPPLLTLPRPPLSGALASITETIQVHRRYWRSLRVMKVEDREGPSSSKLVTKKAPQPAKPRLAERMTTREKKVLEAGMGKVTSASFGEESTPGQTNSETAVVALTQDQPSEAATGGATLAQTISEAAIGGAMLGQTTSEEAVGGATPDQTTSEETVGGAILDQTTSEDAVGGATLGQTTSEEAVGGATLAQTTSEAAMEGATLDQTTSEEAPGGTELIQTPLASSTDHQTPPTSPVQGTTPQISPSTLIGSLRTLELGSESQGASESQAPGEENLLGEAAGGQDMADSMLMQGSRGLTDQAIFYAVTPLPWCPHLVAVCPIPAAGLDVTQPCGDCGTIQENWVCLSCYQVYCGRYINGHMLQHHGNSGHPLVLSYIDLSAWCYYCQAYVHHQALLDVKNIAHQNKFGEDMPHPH
Description: Enzymatic screening on recombinant human HDAC6. It is filed as biochemical. To be noted: Table 2; read-out: HDAC6 IC50. On the procedure: Enzymatic activity on recombinant human HDAC6 and HDAC3 was evaluated (Table 2) for each synthesized compound.
After a period of incubation at 30° C. (incubation times vary for different isoforms and are shown in table 1) 25 μL of solution containing the substrate were added. As substrate, FLUOR DE LYS® deacetylase substrate (Enzo Life Sciences, cat #BML-K1104, FdL), FLUOR DE LYS®-Green substrate (Enzo Life Sciences, cat #BML-K1572 FdL_G) and trifluoroacetyl-L-lysine (Tfal)-2× concentrated solution in 25 mM Tris-HCl, pH 8, 130 mM NaCl 0.05% Tween-20 10% glycerol) were used. Following a reaction period at 30° C.

For orientation: IC50 means the concentration at which inhibition is half-maximal.

Consider `O=C(NO)c1ccc(Cn2nnc(-c3ccc(Cl)cc3Cl)n2)cc1` [comp. 38, 4-[[5-(2,4-dichlorophenyl)tetrazol-2-yl]methyl]benzenecarbohydroxamic acid], for which the “residual percentage in rat S9 fraction” value in series [1] came out at 1%. Besides, the half-maximal inhibitory concentration (IC50) on recombinant human HDAC6 amounted to 10 nM.
In the case of `O=C(NO)c1cc(F)c(Sc2nnc(-c3ccc(F)cc3)n2CCN2CCOCC2)c(F)c1` [comp. 138, 3,5-difluoro-4-[[5-(4-fluorophenyl)-4-(2-morpholinoethyl)-1,2,4-triazol-3-yl]sulfanyl]benzenecarbohydroxamic acid], the “residual percentage in rat S9 fraction” value in series [1] is 79%. The IC50 on recombinant human HDAC6 turned out to be 12 nM.
For `O=C(NO)c1ccc(Cn2nnc(-c3cc4ccccc4s3)n2)cc1` [comp. 55, 4-[[5-(benzothiophen-2-yl)tetrazol-2-yl]methyl]benzenecarbohydroxamic acid] the same measures were 46% and 6 nM.
The corresponding values for `O=C(NO)c1ccc(Cn2nnc(-c3csc4ccccc34)n2)cc1` [comp. 42, 4-[[5-(benzothiophen-3-yl)tetrazol-2-yl]methyl]benzenecarbohydroxamic acid] are 16% and 5 nM.
On to `O=C(NO)c1ccc(Cc2nnc(-c3ccc(S(=O)(=O)N4CCCC4)cc3)o2)cc1` [comp. 69, 4-[[5-(4-pyrrolidin-1-ylsulfonylphenyl)-1,3,4-oxadiazol-2-yl]methyl]benzenecarbohydroxamic acid], for which the IC50 on recombinant human HDAC6 came out at 11 nM.
Regarding `COc1ccc(Cc2nnc(-c3ccc(C(=O)NO)cc3)o2)cc1OC` [comp. 26, 4-[5-[(3,4-dimethoxyphenyl)methyl]-1,3,4-oxadiazol-2-yl]benzenecarbohydroxamic acid], the IC50 at recombinant human HDAC6 turned out to be 258 nM.
Still for that read-out and setting: in the case of `O=C(NO)c1ccc(Cn2nnnc2-c2ncc(C(F)(F)F)cc2N2CCOCC2)cc1` [comp. 131, 4-[[5-[3-morpholino-5-(trifluoromethyl)-2-pyridyl]tetrazol-1-yl]methyl]benzenecarbohydroxamic acid] it was 57 nM; in that of `O=C(NO)c1ccc(Cn2nnnc2-c2ccc(C(F)(F)F)cn2)cc1` [comp. 127, 4-[[5-[5-(trifluoromethyl)-2-pyridyl]tetrazol-1-yl]methyl]benzenecarbohydroxamic acid], 9 nM.
The same measure, in the same setting: in the case of `Cn1c(Sc2c(F)cc(C(=O)NO)cc2F)nnc1-c1cccc(N2CC[N+](C)([O-])CC2)c1` [comp. 114, 3,5-difluoro-4-[[4-methyl-5-[3-(4-methyl-4-oxido-piperazin-4-ium-1-yl)phenyl]-1,2,4-triazol-3-yl]sulfanyl]benzenecarbohydroxamic acid] it was 256 nM; in that of `O=C(NO)c1ccc(Cn2nnc(-c3ccc(C(F)(F)F)cn3)n2)cc1` [comp. 126, 4-[[5-[5-(trifluoromethyl)-2-pyridyl]tetrazol-2-yl]methyl]benzenecarbohydroxamic acid], 86 nM; in that of `O=C(NO)c1cc(F)c(Sc2nnc(-c3cccs3)n2Cc2ccccc2)c(F)c1` [comp. 143, 4-[[4-benzyl-5-(2-thienyl)-1,2,4-triazol-3-yl]sulfanyl]-3,5-difluoro-benzenecarbohydroxamic acid], 25 nM.
As for `O=C(NO)c1ccc(Cn2nnc(-c3cccc(S(F)(F)(F)(F)F)c3)n2)cc1` [comp. 106, 4-[[5-[3-(pentafluoro-lambda6-sulfanyl)phenyl]tetrazol-2-yl]methyl]benzenecarbohydroxamic acid], at recombinant human HDAC6, the IC50 was found to be 26 nM.
Same read-out and setting: to `O=C(NO)c1cc(F)c(Cn2nnc(-c3ccc(S(F)(F)(F)(F)F)cc3)n2)c(F)c1` [comp. 112, 3,5-difluoro-4-[[5-[4-(pentafluoro-lambda6-sulfanyl)phenyl]tetrazol-2-yl]methyl]benzenecarbohydroxamic acid] belongs 123 nM; to `O=C(NO)c1ccc(Sc2nnc(-c3ccccc3)n2-c2ccccc2)cc1` [comp. 24, 4-[(4,5-diphenyl-1,2,4-triazol-3-yl)sulfanyl]benzenecarbohydroxamic acid], 56 nM; to `O=C(NO)c1ccc(Cn2nnnc2Cc2ccccn2)cc1` [comp. 133, 4-[[5-(2-pyridylmethyl)tetrazol-1-yl]methyl]benzenecarbohydroxamic acid;2,2,2-trifluoroacetic acid], 283 nM.
Take `CSc1sc(-c2nnn(Cc3ccc(C(=O)NO)cc3)n2)c2c1C(=O)CC(C)(C)C2` [comp. 54, 4-[[5-(6,6-dimethyl-3-methylsulfanyl-4-oxo-5,7-dihydro-2-benzothiophen-1-yl)tetrazol-2-yl]methyl]benzenecarbohydroxamic acid]: in series [1], the “residual percentage in rat S9 fraction” value is recorded as 0%. Moreover, at recombinant human HDAC6, the concentration for half-maximal inhibition (IC50) stood at 18 nM.
Turning to `O=C(NO)c1cc(F)c(Cc2noc(-c3ccc(CN4CCCC4)o3)n2)c(F)c1` [compound 202, 3,5-difluoro-4-[[5-[5-(pyrrolidin-1-ylmethyl)-2-furyl]-1,2,4-oxadiazol-3-yl]methyl]benzenecarbohydroxamic acid], the concentration for half-maximal inhibition (IC50) on recombinant human HDAC6 stood at 9 nM.
Same read-out and setting: in the case of `O=C(NO)c1ccc(Cn2nnc(-c3ccccc3F)n2)cc1` [comp. 46, 4-[[5-(2-fluorophenyl)tetrazol-2-yl]methyl]benzenecarbohydroxamic acid] it was 5 nM.
As for `O=C(NO)c1cc(F)c(Cn2nnnc2-c2ccc(S(F)(F)(F)(F)F)cc2)c(F)c1` [comp. 113, 3,5-difluoro-4-[[5-[4-(pentafluoro-lambda6-sulfanyl)phenyl]tetrazol-1-yl]methyl]benzenecarbohydroxamic acid], the IC50 on recombinant human HDAC6 stood at 158 nM.
On the same count and under the same terms, in the case of `COc1ccc(CCC(=O)N[C@@H](Cc2cscn2)c2nc(Cc3ccc(C(=O)NO)cc3)no2)cc1OC` [comp. 21, 3-(3,4-dimethoxyphenyl)-N-[(1S)-1-[3-[[4-(hydroxycarbamoyl)phenyl]methyl]-1,2,4-oxadiazol-5-yl]-2-thiazol-4-yl-ethyl]propanamide] it was 116 nM; in that of `COc1ccc(C2(c3nnc(Sc4c(F)cc(C(=O)NO)cc4F)n3C)CC2)cc1` [compound 104, 3,5-difluoro-4-[[5-[1-(4-methoxyphenyl)cyclopropyl]-4-methyl-1,2,4-triazol-3-yl]sulfanyl]benzenecarbohydroxamic acid], 48 nM; in that of `O=C(NO)c1ccc(Cn2nnc(Cc3ccccn3)n2)cc1` [comp. 132, 4-[[5-(2-pyridylmethyl)tetrazol-2-yl]methyl]benzenecarbohydroxamic acid;2,2,2-trifluoroacetic acid], 25 nM.
As to `O=C(NO)c1ccc(Nc2nnc(-c3cccc(S(=O)(=O)N4CCCC4)c3)o2)cc1` [comp. 63, 4-[[5-(3-pyrrolidin-1-ylsulfonylphenyl)-1,3,4-oxadiazol-2-yl]amino]benzenecarbohydroxamic acid], the IC50 at recombinant human HDAC6 turned out to be 682 nM.
